{"source": "patent US20020028851A1", "about": "“Guanylhydrazones and their use to treat inflammatory conditions” (priority 1994, published 2002)", "key": {"TNF [1]": {"test_system": "TNF", "experiment": "Serum TNF levels after parenteral LPS", "assay_type": "in vivo, rats", "details": "i.p. 2.0 hours prior to LPS; measured 2-3 hours after LPS", "protocol": "Qualitatively similar data has been obtained by measurement of the serum TNF levels in rats stimulated to produce TNF by parenteral LPS administration. Rats were given Compound No. 14, i.p., 2.0 hours prior to LPS stimulation. The serum levels of TNF were measured at between 2 and 3 hours after LPS stimulation."}, "TNF [2]": {"test_system": "TNF", "experiment": "Cytokine production by LPS/γIFN-stimulated human PBMC: TNF", "assay_type": "cell-based", "details": "γIFN+LPS, 18 hr", "text": "(§1) Similar results concerning a variety of cytokines in addition to TNF, e.g., IL-6 and Macrophage Inflammatory Proteins-1α and -1β (MIP-1α and MIP-1β) were obtained using human peripheral blood as a source of monocytes. Human peripheral blood mononuclear cells (PBMC) were isolated using “FICOLL®”-based methods and plated in standard 6-well culture plates at a concentration of 10^6/well and allowed to adhere for from 2 hr to overnight whereupon non-adherent cells were washed out and the medium was then replaced with medium containing the compound to be tested. One hour later, the medium was supplemented so as to contain 25 U/ml γIFN and 0.1 μg/ml LPS and the cultures incubated a further 18 hr. The medium was then collected, and cell debris removed by centrifugation. This conditioned supernatant was then assayed for the presence of cytokines using the standard methodologies of L929 cell cytotoxicity bioassay and immunoassay (ELISA)."}, "IL-6": {"test_system": "IL-6", "experiment": "Cytokine production by LPS/γIFN-stimulated human PBMC: IL-6", "assay_type": "cell-based", "details": "γIFN+LPS, 18 hr", "text": "as §1"}}}
{"smiles": "CC(=NNC(=N)N)c1cc(NC(=O)CCCCCCCCC(=O)Nc2cc(C(C)=NNC(=N)N)cc(C(C)=NNC(=N)N)c2)cc(C(C)=NNC(=N)N)c1.Cl.Cl.Cl.Cl", "note": "[Compound 14, N,N′-bis(3,5-diacetyl-phenyl)decanediamide tetrakis(amidinohydrazone) tetrahydrochloride]", "values": [{"measurement": "serum TNF level vs untreated controls", "setting": "TNF [1]", "value": "about half the level of serum TNF"}, {"measurement": "concentration that effectively inhibited production of TNF", "setting": "TNF [2]", "value": "10 to 20", "unit": "µM"}, {"measurement": "concentration that effectively inhibited production of IL-6", "setting": "IL-6", "value": "10 to 20", "unit": "µM"}]}
